# Source: patent US5294634A, “Osteogenesis promoter” (Zeria Pharmaceutical Co., Ltd., priority 1989, dated 1994)
# How the values were obtained:
# femoral diaphysis [1] = test: Zinc content in femoral diaphysis of young rats (Test Example 1); format: in vivo, young Wistar rats; conditions: oral, 5.5 mg/kg body weight in terms of zinc, once a day for 3 days; 24 h after last dose; average ± standard error; control 156.9 ± 7.7
# Experimental: (§1) The osteogenesis-stimulating action of the zinc complex of L-carnosine was confirmed by the calcium content, zinc content, alkaline phosphatase activity and DNA content in the femoral diaphysis of young rats used. Zinc sulfate was used as a comparative compound.
# (§2) Young Wistar rats were used regarding five rats as one group. […] A control group was orally given with a solvent alone.
# (§3) The agent to be tested was administered for 3 days once a day in an amount corresponding to 5.5 mg/kg body weight in terms of zinc. Upon elapsed time of 24 hours after the last dose, the rats were sacrificed and the femoral regions were taken out of each rat under light ether anesthesia. Soft tissues and bone marrow were removed from the femoral region. The diaphysis and epiphysis (including metaphyseal tissues) were separated from each other to form fragments of the femoral diaphysis.
# A fragment of the femoral diaphysis was digested with nitric acid [Biochem. Pharmacol., 36, 4007-4012 (1986)] to measure the content of zinc by atomic adsorption spectrophotometry. The zinc content was expressed in terms of micrograms of zinc per gram of a wet bone.
# (§4) The data were shown as average value±standard error. The significant difference was determined using the Student's t-test.
# alkaline phosphatase = test: Alkaline phosphatase activity in femoral diaphysis of young rats (Test Example 1); format: in vivo, young Wistar rats; conditions: oral, 5.5 mg/kg body weight in terms of zinc, once a day for 3 days; 24 h after last dose; average ± standard error; control 1599.6 ± 74.5
# Experimental: as §1, §2
# The agent to be tested was administered for 3 days once a day in an amount corresponding to 5.5 mg/kg body weight in terms of zinc. Upon elapsed time of 24 hours after the last dose, the rats were sacrificed and the femoral regions were taken out of each rat under light ether anesthesia. […]
# The femoral diaphysis tissue was immersed into 3 ml of ice-cold 6.5 mM barbital buffer solution (pH: 7.4) and then cut into pieces to uniformly grind them by a Potter-Blvehjem homogenizer equipped with a Teflon pestle. […] The alkaline phosphatase activity was determined in accordance with the Wallter-Schutt procedure [Bergmeyer HU (ed), Methods of enzymatic analysis, Vol. 1-2, Academic Press, New York, pp. 856-860 (1965)]. […] The concentration of protein was measured in accordance with the method by Lowry et al. [J. Biol. Chem., 193, 265-273 (1951)].
# as §4
# rats = test: Oral acute toxicity (Test Example 2); format: in vivo, Wister male and female rats; conditions: 10 g/kg body weight, observation for 7 days, male and female rats
# Text: Using Wister male and female rats of 150-200 g by weight regarding 10 rats as respective groups, the crystalline zinc complex of L-carnosine in a dose of 10 g/kg body weight) was orally administered to each rat.
# femoral diaphysis [2] = test: Calcium content in femoral diaphysis of young rats (Test Example 1, osteogenesis-stimulating action); format: in vivo, young Wistar rats; conditions: oral, 5.5 mg/kg body weight in terms of zinc, once a day for 3 days; 24 h after last dose; average ± standard error; control 386.5 ± 6.5
# Experimental: as §1, §2, §3
# The femoral diaphysis tissue was ashed for 24 hours at 640° C. to weigh the resulting ash. Thereafter, the ash was dissolved in 6N hydrochloric acid to measure its calcium content by atomic absorption spectrophotometry. The calcium content in the bone was expressed in terms of mg per g of the bone ash.
# as §4
# femoral diaphysis [3] = test: DNA content in femoral diaphysis of young rats (Test Example 1); format: in vivo, young Wistar rats; conditions: oral, 5.5 mg/kg body weight in terms of zinc; for change in DNA content in the femoral diaphysis: 3 days, in words; for DNA: once a day for 3 days, 24 h after last dose, average ± standard error, control 1.450 ± 0.020
# Experimental: as §1, §2, §3
# A small fragment of the fempral diaphysis was subjected to homogenization for bone tissue, followed by its shaking together with 4.0 ml of 0.1N sodium hydroxide solution cooled with ice. After the thus-treated homogenate was subjected to alkali extraction, the extract was centrifuged at 10,000×g for 5 minutes. The thus-obtained supernatant liquid was used for the measurement in accordance with the Ceriotti method [J. Biol. Chem., 214, 39-77 (1955)]. The DNA content was expressed in terms of the total DNA content (mg) per gram of a wet bone.
# as §4
# femoral diaphysis [4] = test: Osteogenesis-stimulating action (overall, Test Example 1); format: in vivo, young Wistar rats; conditions: for change in zinc content, calcium content and alkaline phosphatase activity in the femoral diaphysis: oral, 5.5 mg/kg body weight in terms of zinc, 3 days, in words
# Experimental: as §1, §2, §3
# [5] = in vivo; cited from earlier work
smiles,measurement,setting,value
"NCCC(=O)[N-][C@@H](Cc1c[nH]cn1)C(=O)[O-].[Zn+2] [L-carnosine zinc complex, Crystalline Zinc Complex of L-Carnosine]",Zinc,femoral diaphysis [1],235.0 ± 9.1 μg/g wet bone
same,Alkaline phosphatase,alkaline phosphatase,1963.4 ± 118.3 μmol/min/mg protein
same,dead cases,rats,dead cases were not recognized
same,Calcium content,femoral diaphysis [2],458.1 ± 8.7 mg/g bone ash
same,change in DNA content in the femoral diaphysis,femoral diaphysis [3],increased
same,DNA,femoral diaphysis [3],2.931 ± 0.100 mg/g wet bone
same,"change in zinc content, calcium content and alkaline phosphatase activity in the femoral diaphysis",femoral diaphysis [4],increased
same,osteogenesis-stimulating action compared with zinc sulfate,femoral diaphysis [4]; same amounts (5.5 mg/kg body weight) in terms of zinc,stronger osteogenesis-stimulating action than zinc sulfate
"O=S(=O)([O-])[O-].[Zn+2] [Zinc sulfate, zinc sulfate, reference compound]",Zinc,femoral diaphysis [1],206.7 ± 9.8 μg/g wet bone
same,Alkaline phosphatase,alkaline phosphatase,2580.5 ± 80.3 μmol/min/mg protein
same,Calcium content,femoral diaphysis [2],405.8 ± 4.5 mg/g bone ash
same,change in DNA content in the femoral diaphysis,femoral diaphysis [3],a significant change was not produced
same,DNA,femoral diaphysis [3],1.510 ± 0.050 mg/g wet bone
same,side effects,[5],"vomiting, nausea and diarrhea"
same,"change in zinc content, calcium content and alkaline phosphatase activity in the femoral diaphysis",femoral diaphysis [4],increased
